Measured values: patent US7534859B2, “Protein kinase C epsilon as modulator of anxiety, alcohol consumption and self-administration of drugs of abuse” (The Regents of the University of California, priority 1998, dated 2009)
Like-named read-outs stand apart in the source and are kept apart here.

Experiments:
[1] = tested on: PKCε−/− and PKCε+/+ mice; test: locomotor activity in activity chambers after intraperitoneal injection; format: in vivo, mouse; details: for locomotor response (distance traveled), PKCε−/− compared to PKCε+/+: i.p.: diazepam 0.5, 1.5, 4.0 mg/kg, muscimol 0.1, 0.2, 0.4 mg/kg, MK-801 0.01, 0.02, 0.03 mg/kg
[2] = tested on: PKCε−/− and PKCε+/+ mice; test: loss of righting reflex (LORR) after intraperitoneal injection; format: in vivo, mouse; details: for LORR duration / sensitivity to sedative effects, PKCε−/− compared to wild-type: Example 3, earlier experiment, sedative doses of pentobarbital
[3] = tested on: PKCε; test: muscimol/flunitrazepam-stimulated 36Cl− uptake in saponin-permeabilized microsacs treated with PKCε inhibitor peptide; format: biochemical, mouse; details: for effect of peptide on the enhancing effect of flunitrazepam on muscimol-stimulated Cl− uptake: wild-type microsacs, 100 μM peptide, 1 μM muscimol and 0.1 μM flunitrazepam, 5 seconds
Protocol: GABAA receptor function was tested directly in wild-type and mutant mice. […] Following a five minute incubation in a shaking water bath at 34° C., chloride uptake in 200 μl membrane aliquots was initiated by the addition and immediate vortexing of 200 μl of a solution containing […] (0.2 μCi/ml of assay buffer). Drugs (muscimol, flunitrazepam, or ethanol) were added only in the ^36Cl^− solution. […] Hg) onto a 2.5 cm Whatman GF/C glass microfiber filter, using a Hoefer manifold (Hoefer Scientific, San Francisco, Calif.). The filters were washed with an additional 12 ml of cold assay buffer. Filters were submerged in Filtron-X (National Diagnostics) and the amount of radioactivity on the filters was determined by liquid scintillation spectrometry. Muscimol-dependent uptake was defined as the total amount of ^36Cl^− taken up while muscimol was present in the medium minus the amount of ^36Cl^− taken up when muscimol was not present.
Microsacs were then centrifuged again at 900× g for 15 min at 4° C. and re-suspended in assay buffer with protease inhibitors at 5 mg/ml immediately prior to assaying ^36Cl^− uptake.

[4] = tested on: GABAA receptor; test: 36Cl− uptake in cortical microsacs from PKCε−/− and PKCε+/+ mice (GABAA receptor function); format: biochemical, mouse; details: for activation of GABAA receptors (muscimol-stimulated Cl− uptake): 10^−12M to 10^−9M, 1 μM muscimol
[5] = tested on: PKCε−/− and PKCε+/+ mice; details: 2.0 g/kg i.p.
Protocol: Probes were perfused with artificial cerebrospinal fluid (aCSF), and animals were allowed to recover overnight. Mice were placed in open field chambers equipped with photobeams, and dialysis sample tubes were changed at 10 min intervals.

[6] = tested on: PKCε−/− and PKCε+/+ mice; details: two weeks liquid diet containing 5% ethanol; 2, 4, 6, 7 hours after removal
Protocol: Withdrawal seizures known as handling-induced convulsions (HIC) can be induced in mice by handling them after chronic exposure to ethanol. […] Withdrawal seizures were evaluated in 4 PKCε^+/+ and 4 PKCε^−/− mice following two weeks exposure to a fully nutritious liquid diet containing 5% ethanol (Dyets, Bethlehem, Pa.) as the only source of food or fluid. Seizures were videotaped at 2, 4, 6, and 7 hours following removal of ethanol from the cage and rated by observers who were blind to the genotype and drug exposure. Data were averaged across time-points and mice.

[7] = tested on: PKCε−/− and PKCε+/+ mice; details: 2-14% ethanol vs water, two-bottle choice
[8] = ethanol 3.2, 3.6, 4.0 g/kg i.p.

C[C@]12N[C@H](Cc3ccccc31)c1ccccc12 [MK-801]
locomotor response (distance traveled), PKCε−/− compared to PKCε+/+ [1]: No differences

CN1C(=O)CN=C(c2ccccc2)c2cc(Cl)ccc21 [diazepam]
sensitivity to sedative effects (LORR), PKCε−/− compared to PKCε+/+ ([2]; diazepam 20, 30, 40 mg/kg i.p., Example 6): 30 fold | locomotor response (distance traveled), PKCε−/− compared to PKCε+/+ [1]: significant increase in distance traveled

εV1-2: selective inhibitor of PKCε, peptide EAVSLKPT
effect of peptide on muscimol and flunitrazepam-stimulated 36Cl− uptake ([3]; microsacs from PKCε−/− mice): did not affect | effect of peptide on the enhancing effect of flunitrazepam on muscimol-stimulated Cl− uptake [3]: markedly increased

CCCC(C)C1(CC)C(=O)NC(=O)NC1=O (centres unmarked) [pentobarbital]
LORR duration / sensitivity to sedative effects, PKCε−/− compared to wild-type [2, 8]: two-fold greater sensitivity | sensitivity to sedative effects (LORR), PKCε−/− compared to control mice ([2]; pentobarbital 30, 40, 50 mg/kg i.p., Example 6): three-fold greater sensitivity

S-εV1-2: scrambled version of the εV1-2 peptide, LSETKPAV
effect of peptide on the enhancing effect of flunitrazepam on muscimol-stimulated Cl− uptake [3]: no effect

CC(=O)[C@H]1CC[C@H]2[C@@H]3CC[C@H]4C[C@H](O)CC[C@]4(C)[C@H]3CC[C@]12C [allopregnanolone, 3alpha-hydroxy-5alpha-pregnan-20-one]
activation of GABAA receptors (muscimol-stimulated Cl− uptake) ([4]; microsacs from PKCε+/+ mice): comparatively little effect | activation of GABAA receptors (muscimol-stimulated Cl− uptake) ([4]; microsacs from PKCε−/− mice): substantially activate

NCc1cc(=O)[nH]o1 [muscimol]
Cl− uptake stimulated by direct agonist, knockout compared to wild-type ([4]; 0-20 μM muscimol, 5 seconds): similar | locomotor response (distance traveled), PKCε−/− compared to PKCε+/+ [1]: indistinguishable

CCO [ethanol]
enhancement of muscimol-stimulated Cl− uptake, PKCε−/− microsacs compared to wild-type ([4]; 1 μM muscimol with 20 mM ethanol or 0.1 μM flunitrazepam): two-fold greater | LORR duration / sensitivity to sedative effects, PKCε−/− compared to wild-type [2, 8]: significantly higher LORR duration | time required to regain righting reflex (LORR duration), PKCε−/− compared to PKCε+/+ ([2]; ethanol 3.2, 3.6, 4.0 g/kg i.p., Example 5): two-fold increase | increase in locomotor activity, PKCε−/− compared to PKCε+/+ ([1]; male mice, 2 g/kg ethanol i.p., 15-minute period): two-fold greater increase | extracellular dopamine levels in nucleus accumbens after administration ([5]; PKCε+/+ mice): transient increase in dopamine levels | extracellular dopamine levels in nucleus accumbens after administration ([5]; PKCε−/− mice): No change in dopamine levels | reduction in withdrawal seizure severity (HIC score) compared to wildtype littermates [6]: 50% | reduction in ethanol preference, PKCε−/− compared to PKCε+/+ [7]: 75%
